# Test results from US6506885B1, “Monoclonal antibodies to the drug tilmicosin and a method for detecting the same” (The United States of America as represented by the …, priority 2001, dated 2003).
# Assays:
# [1] = test system: monoclonal antibody 9-1-4 (Til-5); assay: competitive indirect ELISA (ciELISA) on (XII) coated plates, antibody 9-1-4; type: binding
# Experimental: (§1) The supernatant culture fluid from the cloned hybridomas also may be screened to select for those producing antibodies having a high affinity for tilmicosin. Affinity may be measured using solid phase immunoassays such as ELISA, RIA, or equilibrium dialysis using labeled tilmicosin. In the preferred embodiment, affinity is measured by competitive indirect ELISA as described in the Examples, and is conducted at a final antibody concentration (dilution from the tissue culture supernatant) to give 50% of maximal binding to a tilmicosin- or 23-deoxo-23-demycinosyl tilmicosin-carrier complex coated substrate or assay well (i.e., the concentration of the antibody that results in 50% of the plateau activity in direct binding ELISA). […] Following incubation and washing, bound antibody in the wells is determined in the same manner as the db-ELISA. Percent inhibition may be calculated as (1−B/Bo)×100, where B is the optical density (OD) of a well with a competitor and Bo is the mean OD of the wells without competitor (control). […]
# (§2) The cells which were positive in the initial screening and expanded were analyzed by competitive indirect ELISA (ciELISA) below for inhibition of antibody binding in the presence of free (unconjugated) tilmicosin on (XII) coated antigen plates. […]
# [2] = test system: monoclonal antibody 37-2-6; assay: competitive indirect ELISA (ciELISA) on (XII) coated plates, antibody 37-2-6; type: binding
# Experimental: as §1, §2
# [3] = test system: monoclonal antibody 9-5-3; assay: competitive indirect ELISA (ciELISA) on (XII) coated plates, antibody 9-5-3; type: binding
# Experimental: as §1, §2
# [4] = test system: monoclonal antibody 47-1-1; assay: competitive indirect ELISA (ciELISA) on (XII) coated plates, antibody 47-1-1; type: binding
# Experimental: as §1, §2
# [5] = test system: monoclonal antibody 37-4-5 (Til-1); assay: competitive indirect ELISA (ciELISA) on (XII) coated plates, antibody 37-4-5; type: binding
# Experimental: as §1, §2
# [6] = test system: monoclonal antibody 9-7-7; assay: competitive indirect ELISA (ciELISA) on (XII) coated plates, antibody 9-7-7; type: binding
# Experimental: as §1, §2
# [7] = bovine lung tissue; after serum levels dropped below therapeutic concentrations; cited from earlier work
# [8] = (IC50 of Tilmicosin)/(IC50 of other Compound) X100, — = no cross-reactivity observed
SMILES,"% Competition (percentage of cross-reactivity) [1, 8] [%]","IC50, pmol/well ([1]; free compound as competitor) [pmol/well]","% Competition (percentage of cross-reactivity) [2, 8] [%]","IC50, pmol/well ([2]; free compound as competitor) [pmol/well]","% Competition (percentage of cross-reactivity) [3, 8] [%]","IC50, pmol/well ([3]; free compound as competitor) [pmol/well]","% Competition (percentage of cross-reactivity) [4, 8] [%]","IC50, pmol/well ([4]; free compound as competitor) [pmol/well]","% Competition (percentage of cross-reactivity) [5, 8] [%]","IC50, pmol/well ([5]; free compound as competitor) [pmol/well]","% Competition (percentage of cross-reactivity) [6, 8] [%]","IC50, pmol/well ([6]; free compound as competitor) [pmol/well]",time lung concentrations exceed the P. haemolytica MIC after dosage [7]
"CC1CNCC(C)C1 (stereo not shown) [3,5-dimethyl piperidine]",18,41.5,24,44.2,72,35.3,17,44.2,19,61.8,26,40.6,
CCC1OC(=O)CC(O)C(C)C(OC2OC(C)C(O)C(N(C)C)C2O)C(CCN2CC(C)CC(C)C2)CC(C)C(=O)C=CC(C)=CC1COC1OC(C)C(O)C(OC)C1OC (stereo not shown) [Tilmicosin],,,,,,,,,,,,,at least 72 hours
